Assay results reported in patent publication US20080051463A1, “ANTHRACENE COMPOUNDS AND THEIR USE FOR TREATING BENIGN AND MALIGNANT TUMOR DISORDERS” (AETERNA ZENTARIS GmbH, priority 2006, published 2008).
≈ marks a conversion by molar mass, not a printed value. Where “and” joins values, the source holds several entries; their conditions need not be identical. Equal values may be shown once.

Legend:
[1] = test system: ovarian adenocarcinoma cell line SKOV-3; experiment: Proliferation test (cellular dehydrogenase activity), SK-OV-3; format: cell-based; settings: Homo sapiens
Text: (§1) The antiproliferative activity of the compounds 1, 2, 4, 6, 7, 9, 10, 11, 12 and 13 according to the invention was investigated in a proliferation test performed on established tumor cell lines (D. A. Scuderio et al. Cancer Res. 1988, 48: 4827-4833).
(§2) The test used determines the cellular dehydrogenase activity and makes it possible to determine cell viability and determine cell number indirectly.
(§3) The cell lines used are the human cervical carcinoma cell line KB/HeLa (ATCC CCL17), the ovarian adenocarcinoma cell line SKOV-3 (ATCC HTB77), the human glioblastoma cell line SF-268 (NCI-503138) and the lung carcinoma cell line NCI-H460 (NCI-503473). In addition, an RKOp27 cell system was used for investigating the cell cycle-specific effect of the substance (M. Schmidt et al. Oncogene 2000, 19(20): 2423-9).

[2] = test system: RKOp27 human colon carcinoma cells; experiment: Proliferation test, RKOp27 cell system without p27kiP1 expression; format: cell-based; settings: RKOp27 without expression of p27kiP1
Text: as §1, §2, §3
(§4) RKO is a human colon carcinoma line in which expression of the cell cycle inhibitor p27^kiP1 can be induced using the ecdysone expression system and lead to cell cycle arrest specifically in […].
(§5) By contrast, cell cycle-specific substances, such as, for example, tubulin inhibitors, are only cytotoxic when cells are not arrested and the cell cycle is passed through.

[3] = test system: lung carcinoma cell line NCI-H460; experiment: Proliferation test (cellular dehydrogenase activity), NCI-H460; format: cell-based; settings: Homo sapiens
Text: as §1, §2, §3

[4] = test system: human glioblastoma cell line SF-268; experiment: Proliferation test (cellular dehydrogenase activity), SF-268; format: cell-based
Text: as §1, §2, §3

[5] = test system: RKOp27 human colon carcinoma cells, p27kiP1 induced; experiment: Proliferation test, RKOp27 cell system with induced p27kiP1 expression; format: cell-based; settings: RKOp27 with induced expression of p27kiP1, read-out: RKOP27ind EC50
Text: as §1, §2, §3, §4, §5

[6] = test system: human cervical carcinoma cell line KB/HeLa; experiment: Proliferation test (cellular dehydrogenase activity), KB/HeLa; format: cell-based
Text: as §1, §2, §3

[7] = test system: T1, porcine brain tubulin; experiment: Inhibition of the polymerization of porcine brain tubulin (turbidimetric); format: biochemical; settings: porcine brain tubulin with about 15% MAPs, GTP, 37° C.
T1 construct: In addition to tubulin, the protein used comprises about 15% of associated proteins (MAPs)
Procedure: b) In an in vitro test, the compounds 1, 2, 4 and 7 were tested for inhibition of the polymerization of porcine brain tubulin. In this test, tubulin purified by polymerization and depolymerization cycles is used (Shelanski et al. Proc. Natl. Acad. Sci. U.S.A. 1973, 70, 765-768 modified according to Vater et al. Acta Histochem. Suppl. 1986, 33, 123-129), which is polymerized by addition of GTP and heating to 37° C. In addition to tubulin, the protein used comprises about 15% of associated proteins (MAPs). The measurement values were determined turbidimetrically according to Gaskin et al. J. Mol. Biol. 89 (1974) 737-755.
Table 3 states the EC50 value of the polymerization inhibition.

[8] = test system: bovine tubulin; experiment: Inhibition of the polymerization of bovine tubulin (in vitro); format: biochemical; settings: for Inhibition at 10 μg/ml [%]: tubulin with 30% associated proteins (MAPs), repeat values; for EC50 of polymerization inhibition of tubulin: bovine tubulin with 30% associated proteins (MAPs)
Text: In this test, tubulin purified by polymerization and depolymerization cycles is used, which is polymerized by addition of GTP and heating.
Table 1 states the %-inhibition values and Table 2 states the EC50 values of polymerization inhibition of tubulin with 30% associated proteins (MAPs).

[9] = test system: murine P388 cell line; experiment: XTT antiproliferative test, P388; format: cell-based; settings: P388 wild type; for IC50: Mus musculus, P388, XTT; for P388 IC50: XTT
Text: (§6) For further characterization, the compounds 6 and 7 according to the invention were investigated with regard to multidrug-resistant (MDR) cell lines as compared with the nonresistant wild-type cell lines.
(§7) The murine P388 cell line (methylcholanthrene-induced lymphoid neoplasm) [R. Supino et al.; Inst. Nazionale per lo Studio e las cura die Tumori; Milan)] and the doxorubicin-resistant P388 cell line (NSC-123127) were also included as test systems.

[10] = test system: acute myeloid leukaemia cell line LT12; experiment: XTT antiproliferative test, LT12; format: cell-based; settings: LT12 wild type; for IC50: Rattus norvegicus, LT12, XTT; for LT12 IC50: XTT
Text: as §6
(§8) The cell lines which were investigated are the murine cell line L1210 (ATCC CCL219), the acute myeloid leukaemia cell line LT12 (De Vries et al.; University Rotterdam) and the resistant lines L1210/VCR (Asta Medica Laboratory) and LT12/mdr (De Vries et al.; University Rotterdam).

[11] = test system: doxorubicin-resistant P388 cell line; experiment: XTT antiproliferative test, doxorubicin-resistant P388; format: cell-based, murine; settings: for IC50: Mus musculus, P388, XTT, read-out: P388ADR IC50; for P388ADR IC50: XTT
Text: as §6, §7

[12] = test system: murine cell line L1210; experiment: XTT antiproliferative test, L1210; format: cell-based; settings: L1210 wild type; for IC50: Mus musculus, L1210, XTT; for L1210 IC50: XTT
Text: as §6, §8

[13] = test system: resistant line L1210/VCR; experiment: XTT antiproliferative test, L1210/VCR; format: cell-based, murine
Text: as §6, §8

[14] = test system: resistant line LT12/mdr; experiment: XTT antiproliferative test, LT12/mdr; format: cell-based
Text: as §6, §8

[15] = test system: KB/HeLa cells; experiment: Cell cycle analysis (G2/M arrest) in KB/HeLa cells; format: cell-based; settings: Homo sapiens, 24 h, 24 hours at 37° C., 0.1-1000 nM, read-out: EC50 [nM] (50% cells in G2/M)
Procedure: For the cell cycle analysis, KB/HeLa cells (ATCC CCL17) were treated with different concentrations (0.1-1000 nM) of the test substances at 37° C. for 24 hours.
The percentage of cells arrested in the G2/M phase of the cell cycle after treatment with compounds according to the invention and selected reference substances is shown in Table 9 below. The results were analysed using special analytical software (ModFit™).

EC50 [2]	EC50 [3]	melting point	EC50 [5]	EC50 [6]	Structure (SMILES)	Inhibition at 10 μg/ml [%] [8]	other results
0.802 µg/mL (≈ 2.32 µM)	0.931 µg/mL (≈ 2.69 µM)	200 to 201 °C	> 3.16 µg/mL	0.248 µg/mL (≈ 0.716 µM)	COc1csc(C(=O)C=C2c3ccccc3C(=O)c3ccccc32)c1 [Compound 2, 10-[2-(4-methoxy-thiophen-2-yl)-2-oxo-ethylidene]-10H-anthracen-9-one]	–	EC50 [1]: 0.416 µg/mL (≈ 1.2 µM); EC50 [4]: 0.331 µg/mL (≈ 0.956 µM); EC50 of the polymerization inhibition [7]: 2.3 µg/mL
–	–	177 to 178 °C	–	–	O=C1c2ccccc2C(=CC(=O)N2CCSCC2)c2ccccc21 [Compound 3, 10-(2-oxo-2-thiomorpholin-4-ylethylidene)-10H-anthracen-9-one]	–	–
0.108 µg/mL (≈ 0.315 µM)	0.203 µg/mL (≈ 0.593 µM)	169 to 172 °C	> 3.16 µg/mL	0.181 µg/mL (≈ 0.529 µM)	COc1ccc(C(=O)C=C2c3ccccc3C(O)c3ccccc32)cc1 (centres unmarked) [Compound 4, 2-(10-hydroxy-10H-anthracen-9-ylidene)-1-(4-methoxy-phenyl)-ethanone]	–	EC50 [1]: 0.171 µg/mL (≈ 0.499 µM); EC50 [4]: 0.227 µg/mL (≈ 0.663 µM); EC50 of the polymerization inhibition [7]: 1.2 µg/mL
–	–	189 to 190 °C	–	–	COc1ccc(N2CCN(C(=O)C=C3c4ccccc4C(=O)c4ccccc43)CC2)cc1 [Compound 5, 10-{2-[4-(4-methoxy-phenyl)-piperazin-1-yl]-2-oxo-ethylidene}-10H-anthracen-9-one]	–	–
0.24 µg/mL (≈ 0.648 µM)	0.29 µg/mL (≈ 0.783 µM)	160 °C	> 3.16 µg/mL	0.458 µg/mL (≈ 1.24 µM)	COc1ccc(C(=O)C=C2c3ccccc3C(=O)c3ccccc32)cc1OC [Compound 6, 10-[2-(3,4-dimethoxy-phenyl)-2-oxo-ethylidene]-9(10H)-anthracenone]	68.9% and 86.1% and 99.0%	IC50 [9]: 0.35 µg/mL (≈ 0.945 µM); P388 IC50 [9]: 0.39 µg/mL; IC50 [10]: 0.1 µg/mL (≈ 0.27 µM); LT12 IC50 [10]: 0.17 µg/mL; IC50 [11]: 0.25 µg/mL (≈ 0.675 µM); P388ADR IC50 [11]: 0.49 µg/mL; IC50 [12]: 0.32 µg/mL (≈ 0.864 µM); L1210 IC50 [12]: 0.35 µg/mL
0.027 µg/mL (≈ 0.0793 µM)	0.025 µg/mL (≈ 0.0734 µM)	120 to 122 °C	> 3.16 µg/mL	0.02 µg/mL (≈ 0.0588 µM)	COc1ccc(C(=O)C=C2c3ccccc3C(=O)c3ccccc32)cc1 [Compound 7, 10-[2-(4-methoxy-phenyl)-2-oxo-ethylidene]-10H-anthracen-9-one]	99.1% and 100.0%	IC50 ([13]; Mus musculus, L1210, XTT, read-out: L1210VCR IC50): 0.017 µg/mL (≈ 0.0499 µM); L1210VCR IC50 ([13]; XTT): 0.018 µg/mL; EC50 of polymerization inhibition of tubulin [8]: 1.38 µg/mL and 1.50 µg/mL; IC50 [9]: 0.014 µg/mL (≈ 0.0411 µM); P388 IC50 [9]: 0.015 µg/mL; EC50 [1]: 0.02 µg/mL (≈ 0.0588 µM); EC50 [4]: 0.02 µg/mL (≈ 0.0588 µM); IC50 [10]: 0.015 µg/mL (≈ 0.0441 µM); LT12 IC50 [10]: 0.019 µg/mL; EC50 of the polymerization inhibition [7]: 0.5 µg/mL; IC50 ([14]; Rattus norvegicus, LT12, XTT, read-out: LT12mdr IC50): 0.015 µg/mL (≈ 0.0441 µM); LT12mdr IC50 ([14]; XTT): 0.020 µg/mL; IC50 [11]: 0.016 µg/mL (≈ 0.047 µM); P388ADR IC50 [11]: 0.018 µg/mL; IC50 [12]: 0.016 µg/mL (≈ 0.047 µM); L1210 IC50 [12]: 0.017 µg/mL
–	–	176 to 178 °C	–	–	COc1ccc(C(=O)C=C2c3ccccc3C(=O)c3ccccc32)c(O)c1OC [Compound 8, 10-[2-(2-hydroxy-3,4-dimethoxy-phenyl)-2-oxo-ethylidene]-10H-anthracen-9-one]	–	–
0.09 µg/mL (≈ 0.277 µM)	0.11 µg/mL (≈ 0.339 µM)	129 °C	> 3.16 µg/mL	0.2 µg/mL (≈ 0.617 µM)	Cc1ccc(C(=O)C=C2c3ccccc3C(=O)c3ccccc32)cc1 [Compound 9, 10-(2-oxo-2-p-tolyl-ethylidene)-10H-anthracen-9-one]	98.3% and 99.8% and 100.0%	EC50 of polymerization inhibition of tubulin [8]: 0.49 µg/mL; EC50 [1]: 0.13 µg/mL (≈ 0.401 µM); EC50 [4]: 0.2 µg/mL (≈ 0.617 µM)
1.38 µg/mL (≈ 4.23 µM)	1.34 µg/mL (≈ 4.11 µM)	211 to 212 °C	> 3.16 µg/mL	2.65 µg/mL (≈ 8.12 µM)	O=C(C=C1c2ccccc2C(=O)c2ccccc21)c1ccc(O)cc1 [Compound 10, 10-[2-(4-hydroxy-phenyl)-2-oxo-ethylidene]-10H-anthracen-9-one]	85.0% and 94.8% and 98.4% and 98.6%	EC50 of polymerization inhibition of tubulin [8]: 4.87 µg/mL
–	1.05 µg/mL (≈ 3.32 µM)	126 °C	> 3.16 µg/mL	2.65 µg/mL (≈ 8.38 µM)	O=C(C=C1c2ccccc2C(=O)c2ccccc21)c1cccs1 [Compound 11, 10-(2-oxo-2-thiophen-2-yl-ethylidene)-10H-anthracen-9-one]	–	–
0.63 µg/mL (≈ 1.93 µM)	0.61 µg/mL (≈ 1.87 µM)	185 °C	> 3.16 µg/mL	1.4 µg/mL (≈ 4.29 µM)	O=C(C=C1c2ccccc2C(=O)c2ccccc21)c1cccc(O)c1 [Compound 12, 10-[2-(3-hydroxy-phenyl)-2-oxo-ethylidene]-10H-anthracen-9-one]	83.1% and 95.0% and 92.7% and 86.9%	EC50 [1]: 3.03 µg/mL (≈ 9.28 µM); EC50 [4]: 2.22 µg/mL (≈ 6.8 µM)
1.1 µg/mL (≈ 3.23 µM)	1.16 µg/mL (≈ 3.41 µM)	–	> 3.16 µg/mL	1.89 µg/mL (≈ 5.55 µM)	COc1cccc(C(=O)C=C2c3ccccc3C(=O)c3ccccc32)c1 [Compound 13, 10-[2-(3-methoxy-phenyl)-2-oxo-ethylidne]-10H-anthracen-9-one]	72.6% and 85.9% and 87.3% and 93.7%	–
–	–	113 °C	–	–	COC(=O)C=C1c2ccccc2C(=O)c2ccccc21 [Compound 15, (10-oxo-10H-anthracen-9-ylidene)-acetic acid methyl ester]	–	–
–	–	151 to 152 °C	–	–	COc1cc(C(=O)C=C2c3ccccc3C(=O)c3ccccc32)cc(OC)c1OC [Compound 16, 10-[2-oxo-2-(3,4,5-trimethoxy-phenyl)-ethylidene]-10H-anthracen-9-one]	65.0% and 65.5% and 61.9%	–
–	–	180 to 182 °C	–	–	O=C(O)C=C1c2ccccc2C(=O)c2ccccc21 [Compound 17, (10-oxo-10H-anthracen-9-ylidene)-acetic acid]	–	–
–	–	128 °C	–	–	O=C(C=C1c2ccccc2C(=O)c2ccccc21)c1ccccc1 [Compound 18, 10-(2-oxo-2-phenyl-ethylidene)-10H-anthracen-9-one]	54.9% and 69.9% and 79.8% and 71.0%	–
–	–	–	–	–	CC(=O)O[C@H]1C(=O)[C@@]2(C)[C@H]([C@H](OC(=O)c3ccccc3)[C@]3(O)C[C@H](OC(=O)[C@H](O)[C@@H](NC(=O)c4ccccc4)c4ccccc4)C(C)=C1C3(C)C)[C@]1(OC(C)=O)CO[C@@H]1C[C@@H]2O [Paclitaxel]	–	EC50 [15]: 26.9 nM
